Article PMC6321172, “Analysis of Vipadenant and Its In Vitro and In Vivo Metabolites via Liquid Chromatography-Quadrupole-Time-of-Flight Mass Spectrometry” (Pharmaceutics, 2018)
Like-named read-outs stand apart in the source and are kept apart here.

Columns and labels:
[1] = Rat pharmacokinetic study after IV or PO administration; type: in vivo; conditions: for Cmax: read-out: C0 or Cmax; for Vd: read-out: Vss
Description: Twenty microliters of the rat pharmacokinetics samples were placed in cluster tubes. As a make-up solution, 4 μL of DMSO was added to the cluster tube and 100 μL of ACN containing ISTD (verapamil) was also added. The mixture was capped, gently shaken for approximately 1 min and was then centrifuged for 5 min at 12,000 rpm (4 °C). Following the centrifugation, 50 μL supernatant was transferred to a clean test tube and was diluted with 100 μL of distilled water. The resulting mixture was then transferred to an LC-vial and 10 μL was injected to the LC-QTOF-MS. The same procedure was also applied to the STD samples and QC samples.
Data acquisition and LC-QTOF-MS operation was conducted using Analyst® TF Version 1.6 (Sciex). MultiQuant® Version 2.1.1 (Sciex) was used for the peak integration for vipadenant quantification. PeakView® Version 2.2 and MetabolitePilot™ Version 2.0.2 were used for the structural elucidation of vipadenant metabolites. […] Pharmacokinetic parameters were calculated in a non-compartmental analysis using WinNonlin® version 8.0.0 (Certara, Princeton, NJ, USA).
Male sprague-dawley rats (300 ± 10 g) were purchased from the Samtako Biokorea Co. (Gyeonggi, Korea) and housed in groups of 3~4 per cage and given standard rodent chow. […] Rats were distributed into four different groups (three rats per group; 1 & 2 mg/kg IV group and 2 & 5 mg/kg PO group). Blood was drawn into the heparinized tubes after IV (1 and 2 mg/kg) or PO (2 and 5 mg/kg) administration and was immediately centrifuged at 10,000 rpm for 5 min. […] The supernatant of the centrifuged samples (plasma) were transferred to the clean tubes and stored at −20 °C until analysis.
During the sample preparation of the PK samples, QC samples were included for the assurance of the analytical run.

[2] = In-house metabolic stability study (rat liver microsome); type: in vitro ADME; conditions: liver microsomes, read-out: in vitro intrinsic clearance
[3] = Preliminary stability assessment in rat plasma QC samples; type: physicochemical; conditions: for Mean Accuracy (%), post-preparative stability: processed rat plasma samples, 24 h, 4 °C; for Mean Accuracy (%), long-term stability: 2 weeks; for Mean Accuracy (%), long-term stability / Mean Accuracy (%), freeze-thaw stability: −80 °C; for Mean Accuracy (%), freeze-thaw stability: 3 cycles; for Mean Accuracy (%), short term stability: 4 h, RT
Description: Each stability assessment was carried out in blank rat plasma. Three levels of QC (low, medium and high) were used in the short-term, freeze-thaw, long-term and post-preparative stability assessments and two levels of QC (medium & high) were used in stock solution stability assessment. The short term stability assessment was carried out at room temperature (RT) over 4 h and the results obtained were compared with the control (0 min). In the long-term stability assessment, the samples kept frozen at −80 °C for 2 weeks were compared with the freshly prepared control group samples. The freeze-thaw stability was evaluated over three cycles of freezing (−80 °C) and thawing (RT). […] As a separate stock-solution stability assessment, the vipadenant stock-solution prepared at 1 mg/mL (DMSO) was stored at −80 °C for 6 months and its stability was evaluated. The stability test results were evaluated by confirming that the mean accuracy (%) of the nominal value which should be within ± 25% range.

[4] = Stock solution stability assessment (1 mg/mL in DMSO); type: physicochemical; conditions: for Mean Accuracy (%), stock storage stability: DMSO stock, 6 months, −80°C
Description: Each stability assessment was carried out in blank rat plasma. Three levels of QC (low, medium and high) were used in the short-term, freeze-thaw, long-term and post-preparative stability assessments and two levels of QC (medium & high) were used in stock solution stability assessment. The short term stability assessment was carried out at room temperature (RT) over 4 h and the results obtained were compared with the control (0 min). In the long-term stability assessment, the samples kept frozen at −80 °C for 2 weeks were compared with the freshly prepared control group samples. The freeze-thaw stability was evaluated over three cycles of freezing (−80 °C) and thawing (RT). The post-preparative stability was assessed for the QC samples kept in an auto-sampler (10 °C) for 24 h. As a separate stock-solution stability assessment, the vipadenant stock-solution prepared at 1 mg/mL (DMSO) was stored at −80 °C for 6 months and its stability was evaluated. The stability test results were evaluated by confirming that the mean accuracy (%) of the nominal value which should be within ± 25% range.

[5] = male, Sprague-Dawley, plasma, rat, IV 1 mg/kg
[6] = male, Sprague-Dawley, plasma, rat, IV 2 mg/kg
[7] = male, Sprague-Dawley, plasma, rat, PO 2 mg/kg
[8] = male, Sprague-Dawley, plasma, rat, PO 5 mg/kg
[9] = rat plasma, nominal QC 15 ng/mL
[10] = rat plasma, nominal QC 165 ng/mL
[11] = rat plasma, nominal QC 1820 ng/mL

## Cc1cc(Cn2nnc3c(-c4ccco4)nc(N)nc32)ccc1N [vipadenant, Vipadenant]
[1]; [5]
  AUC(0-t): 451 ng·h/mL
  Tmax: 2.6 min
  clearance: 37.8 ± 7.2 mL/min/kg
  half-life: 48 ± 5.8 min
  Cmax: 2210 ± 1160 ng/mL
  Vd: 1.08 ± 0.223 L/kg
[1]; [6]
  AUC(0-t): 1510 ng·h/mL
  Tmax: 2 min
  clearance: 22.5 ± 4.3 mL/min/kg
  half-life: 71.2 ± 8.5 min
  Cmax: 3090 ± 222 ng/mL
  Vd: 1.21 ± 0.174 L/kg
[1]; [7]
  AUC(0-t): 279 ng·h/mL
  Tmax: 7.5 min
  half-life: 65.2 ± 20.2 min
  Cmax: 230 ± 88 ng/mL
[1]; [8]
  AUC(0-t): 887 ng·h/mL
  Tmax: 30 min
  half-life: 116 ± 59 min
  Cmax: 296 ± 87.3 ng/mL
[1]; male, Sprague-Dawley, plasma, rat, PO 2 and 5 mg/kg vs IV 1 and 2 mg/kg, read-out: BA (average bioavailability)
  bioavailability: 30.4 ± 8.9%
[1]; rat IV study
  clearance (in words): low to moderate clearance
[2]
  CLint scaled: 20 mL/min/kg
[3]; auto-sampler storage condition (10 °C)
  time processed samples stable: at least 24 h
[3]; nominal QC 15 ng/mL
  Mean Accuracy (%), post-preparative stability: 114.8%
[3]; nominal QC 165 ng/mL
  Mean Accuracy (%), post-preparative stability: 99.2%
[3]; nominal QC 1820 ng/mL
  Mean Accuracy (%), post-preparative stability: 94.9%
[3]; [9]
  Mean Accuracy (%), long-term stability: 111.8%
  Mean Accuracy (%), freeze-thaw stability: 118.8%
  Mean Accuracy (%), short term stability: 97.8%
[3]; [10]
  Mean Accuracy (%), long-term stability: 104.1%
  Mean Accuracy (%), freeze-thaw stability: 88.5%
  Mean Accuracy (%), short term stability: 90.5%
[3]; [11]
  Mean Accuracy (%), long-term stability: 103.7%
  Mean Accuracy (%), freeze-thaw stability: 91.1%
  Mean Accuracy (%), short term stability: 92.6%
[3]; rat plasma, three cycles of freeze-thawing (RT vs. −80 °C)
  freeze-thaw stability (in words): stable
[3]; rat plasma, −80 °C storage
  time stable, long-term stability test: at least 2 weeks
[3]; room temperature
  time stable in rat plasma QC sample: at least 4 h
[4]; nominal QC 165 ng/mL
  Mean Accuracy (%), stock storage stability: 102.5%
[4]; nominal QC 1820 ng/mL
  Mean Accuracy (%), stock storage stability: 95.6%
[4]; stock solution prepared in DMSO
  time stock solution showed stability: 6 months
